pIC50: −log10 of the molar value.

Series [1] in a line: Pharmacokinetic experiment in rats. It is filed as in vivo. To be noted: rat, male SD rats, plasma; for Vd: read-out: Vdss. As for the experimental part: 1.1 Test animals: Male SD rats, about 220 g, 6-8 weeks old, 6 rats/compound. The rats were purchased from CHENGDU DOSSY EXPERIMENTAL ANIMALS CO., LTD.
1.2 Test design: On the day of the experiment, 6 SD rats were randomly grouped according to their body weight. The rats were fasted but given water for 12-14 h one day before the administration, and were fed 4 h after the administration.
Before and after the administration, 0.1 ml of blood was taken from the orbit of the rats under isoflurane anesthesia and placed in an EDTAK2 centrifuge tube. The blood was centrifuged at 5000 rpm and 4° C. for 10 min to collect plasma. Blood sampling time point for the intravenous administration group: 0, 5, 15, 30 min, 1, 2, 4, 6, 8, and 24 h; and blood sampling time point for the intragastric administration group: 0, 5, 15, 30 min, 1, 2, 4, 6, 8, and 24 h. Before analysis and detection, all samples were stored at −80° C.

The target of series [2] is Recombinant human DPP1 enzyme (Homo sapiens (Human), UniProt P53634). As to the kind of experiment: In vitro DPP1 enzyme activity assay. It is filed as biochemical. Conditions: recombinant human DPP1 activated with cathepsin L, substrate Gly-Arg-AMC, fluorescence; read-out: DPP1 inhibitory activity IC50.
Recombinant human DPP1 enzyme, sequence (P53634 25-134): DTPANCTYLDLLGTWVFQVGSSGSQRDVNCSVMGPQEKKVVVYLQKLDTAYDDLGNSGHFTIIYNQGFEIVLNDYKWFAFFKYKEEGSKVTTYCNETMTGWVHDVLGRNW
Recombinant human DPP1 enzyme, sequence (P53634 231-394): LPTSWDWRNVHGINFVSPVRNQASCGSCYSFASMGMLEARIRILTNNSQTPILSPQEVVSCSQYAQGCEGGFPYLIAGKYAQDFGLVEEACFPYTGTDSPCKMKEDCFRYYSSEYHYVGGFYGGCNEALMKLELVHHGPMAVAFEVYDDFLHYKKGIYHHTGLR
Recombinant human DPP1 enzyme, sequence (P53634 395-463): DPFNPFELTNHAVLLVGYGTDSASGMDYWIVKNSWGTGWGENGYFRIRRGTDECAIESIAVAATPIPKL
Experimental: Recombinant human DPP1 enzyme (R&D Systems, Cat. No. 1071-CY) at a final concentration of 100 μg/mL was mixed with recombinant human cathepsin L (R&D Systems, Cat. No. 952-CY) at a final concentration of 20 μg/mL were mixed and incubated at room temperature for 1 hour to activate the DPP1 enzyme. The activated DPP1 enzyme was diluted 100-fold, and 5 μL of compounds at different concentrations and 5 μL of the diluted DPP1 enzyme were added to a 384-well plate and incubated at room temperature for 30 minutes. […] IC50 values were calculated using the DosResp function of the Origin2019 software.

As a reminder, the AUC(0-t) is exposure summed from dosing to a finite time, without extrapolation to infinity. A lower AUC(0-t) goes with less exposure. As a reminder, the clearance is a measure of how efficiently the substance is removed, as volume per time. Low values mean a low capacity for elimination, high ones a high capacity for elimination. Broadly, the bioavailability is the share of a dose that reaches the circulation, judged against a reference dose that is usually intravenous. Read a low bioavailability as little systemic uptake. As to `Cn1c(=O)oc2ccc(-c3ccc(C[C@@H](C#N)NC(=O)[C@@H]4CNCCCO4)c(F)c3)cc21` [Compound 1, (S)—N—((S)-1-cyano-2-(2-fluoro-4-(3-methyl-2-oxo-2,3-dihydrobenzo[d]oxazol-5-yl)phenyl)ethyl)-1,4-oxazepane-2-carboxamide], in series [1] (iv, intravenously 1 mg/kg), the AUC(0-t) was found to be 9500 ng·h/mL, the clearance stood at 1.66 mL/min/kg and the Vd was 0.753 L/kg. In series [1] (po, intragastrically 3 mg/kg), this compound yielded a bioavailability above 100% and an AUC(0-t) of 31200 ng·h/mL.

Usually pIC50 stands for −log10 of the IC50, conventionally taken in molar units. With `N#C[C@H](Cc1ccc(-c2nc3ccccc3s2)cc1F)NC(=O)[C@@H]1CNCCCO1` [Compound 13, (S)—N—((S)-2-(4-(benzo[d]thiazol-2-yl)-2-fluorophenyl)-1-cyanoethyl)-1,4-oxazepane-2-carboxamide], in series [2], the pIC50 is 7.15.

In the case of `N#Cc1ccc(-c2ccc(C[C@@H](C#N)NC(=O)[C@@H]3CNCCCO3)c(F)c2)cc1C(F)(F)F` [Compound 29, (S)—N—((S)-1-cyano-2-(4′-cyano-3-fluoro-3′-(trifluoromethyl)-[1,1′-biphenyl]-4-yl)ethyl)-1,4-oxazepane-2-carboxamide], the pIC50 in series [2] is 8.31.

As for `COC1CNCC(C(=O)N[C@H](C#N)Cc2ccc(-c3ccc(S(F)(F)(F)(F)F)cc3)cc2F)OC1` (stereo partly drawn) [Compound 43, N—((S)-1-cyano-2-(3-fluoro-4′-(pentafluoro-16-sulfanyl)-[1,1′-biphenyl]-4-yl)ethyl)-6-methoxy-1,4-oxazepane-2-carboxamide], in series [2], the pIC50 is 9.52.

Turning to `Cc1csc(-c2ccc(C[C@@H](C#N)NC(=O)[C@@H]3CNCCCO3)c(F)c2)n1` [Compound 15, (S)—N—((S)-1-cyano-2-(2-fluoro-4-(4-methylthiazol-2-yl)phenyl)ethyl)-1,4-oxazepane-2-carboxamide], the pIC50 in series [2] is 7.48.

Turning to `Cn1c(=O)oc2ccc(-c3cc(F)c(C[C@@H](C#N)NC(=O)[C@@H]4CNCCCO4)cn3)cc21` [Compound 35, (S)—N—((S)-1-cyano-2-(4-fluoro-6-(3-methyl-2-oxo-2,3-dihydrobenzo[d]oxazol-5-yl)pyridin-3-yl)ethyl)-1,4-oxazepane-2-carboxamide], in series [2], the pIC50 is 8.40.

As for `CN1CCN(Cc2ccc(-c3ccc(C[C@@H](C#N)NC(=O)[C@@H]4CNCCCO4)c(F)c3)cc2)CC1` [Compound 14, (S)—N—((S)-1-cyano-2-(3-fluoro-4′-((4-methylpiperazin-1-yl)methyl)-[1,1′-biphenyl]-4-yl)ethyl)-1,4-oxazepane-2-carboxamide], in series [2], the pIC50 was 7.89.

Consider `N#C[C@H](Cc1ccc(C#CC2CCCC2)cc1F)NC(=O)[C@@H]1CNCCCO1` [Compound 11, (S)—N—((S)-1-cyano-2-(4-(cyclopentylethynyl)-2-fluorophenyl)ethyl)-1,4-oxazepane-2-carboxamide], for which, in series [2], the pIC50 is 6.62.

As to `Cn1c(=O)oc2ccc(-c3ccc(C[C@@H](C#N)NC(=O)[C@@H]4CNCCCO4)cc3)cc21` [INS1007, reference compound], in series [1] (iv, intravenously 1 mg/kg), the AUC(0-t) was 8400 ng·h/mL, the clearance stood at 2.08 mL/min/kg and the Vd came to 0.738 L/kg. In series [1] (po, intragastrically 3 mg/kg), this compound showed a bioavailability of 88.1% and an AUC(0-t) of 22200 ng·h/mL.

Regarding `N#Cc1ccc(-c2ccc(C[C@@H](C#N)NC(=O)[C@@H]3CNCCCO3)c(F)c2)cc1C1CC1` [Compound 17, (S)—N—((S)-1-cyano-2-(4′-cyano-3′-cyclopropyl-3-fluoro-[1,1′-biphenyl]-4-yl)ethyl)-1,4-oxazepane-2-carboxamide], in series [2], the pIC50 is 8.13.

Regarding `N#C[C@H](Cc1ccc(-c2ccc3c(c2)CCNC3=O)cc1F)NC(=O)[C@@H]1CNCCCO1` [Compound 10, (S)—N—((S)-1-cyano-2-(2-fluoro-4-(1-oxo-1,2,3,4-tetrahydroisoquinolin-6-yl)phenyl)ethyl)-1,4-oxazepane-2-carboxamide], the pIC50 in series [2] was 8.17.

With `Cc1nc(-c2ccc(C[C@@H](C#N)NC(=O)[C@@H]3CNCCCO3)c(F)c2)sc1C#N` [Compound 12, (S)—N—((S)-1-cyano-2-(4-(5-cyano-4-methylthiazol-2-yl)-2-fluorophenyl)ethyl)-1,4-oxazepane-2-carboxamide], the pIC50 in series [2] is 7.68.

The values are drawn from patent US11807635B2, “Nitrile derivative that acts as inhibitor of dipeptidyl peptidase 1 and use thereof” (HAISCO PHARMACEUTICALS PTE. LTD, priority 2020, dated 2023).
